Reference: ChEMBL document CHEMBL4507259 (2021)

Legend:
NCI-H727 = assay: H727 cell line Proliferation assay; format: functional, Homo sapiens; details: Compound concentration 10 uM; time 3 day
NCI-H2081 = assay: H2081 cell line Proliferation assay; format: functional, Homo sapiens; details: Compound concentration 10 uM; time 4 day
U-937 = assay: U937 cell line Proliferation assay; format: functional, Homo sapiens; details: Compound concentration 10 uM; time 3 day
NCI-H1930 = assay: H1930 cell line Proliferation assay; format: functional, Homo sapiens; details: Compound concentration 10 uM; time 4 day
MDA-MB-468 = assay: MDA_MB_468 cell line Proliferation assay; format: functional, Homo sapiens; details: Compound concentration 10 uM; time 5 day
MDA-MB-453 = assay: MDA_MB_453 cell line Proliferation assay; format: functional, Homo sapiens; details: Compound concentration 10 uM; time 5 day
Farage = assay: Farage cell line Proliferation assay; format: functional, Homo sapiens; details: Compound concentration 10 uM; time 3 day
[1] = molecular target: Atypical kinase COQ8A, mitochondrial (Homo sapiens) (UniProt Q8NI60); details: Compound concentration 1000.0 nM
Sequence of Atypical kinase COQ8A, mitochondrial (Homo sapiens) (Q8NI60 163-647 limits assumed): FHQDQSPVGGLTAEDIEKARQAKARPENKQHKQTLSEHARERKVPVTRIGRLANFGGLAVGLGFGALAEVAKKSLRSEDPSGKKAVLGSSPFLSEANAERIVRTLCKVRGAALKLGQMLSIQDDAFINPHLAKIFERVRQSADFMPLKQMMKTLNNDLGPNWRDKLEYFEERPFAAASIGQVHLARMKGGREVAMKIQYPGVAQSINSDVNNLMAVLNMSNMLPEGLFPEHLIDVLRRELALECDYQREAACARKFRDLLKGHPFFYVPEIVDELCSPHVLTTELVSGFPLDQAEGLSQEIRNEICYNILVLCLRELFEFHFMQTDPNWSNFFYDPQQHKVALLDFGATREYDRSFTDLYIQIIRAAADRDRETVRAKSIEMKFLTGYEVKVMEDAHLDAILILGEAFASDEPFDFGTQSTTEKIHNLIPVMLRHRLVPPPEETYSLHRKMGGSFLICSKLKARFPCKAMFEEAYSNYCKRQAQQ

[2] = molecular target: 5-hydroxytryptamine receptor 7 (Homo sapiens) (UniProt P34969); details: Compound concentration 10.0 uM
Sequence of 5-hydroxytryptamine receptor 7 (Homo sapiens) (P34969 whole entry): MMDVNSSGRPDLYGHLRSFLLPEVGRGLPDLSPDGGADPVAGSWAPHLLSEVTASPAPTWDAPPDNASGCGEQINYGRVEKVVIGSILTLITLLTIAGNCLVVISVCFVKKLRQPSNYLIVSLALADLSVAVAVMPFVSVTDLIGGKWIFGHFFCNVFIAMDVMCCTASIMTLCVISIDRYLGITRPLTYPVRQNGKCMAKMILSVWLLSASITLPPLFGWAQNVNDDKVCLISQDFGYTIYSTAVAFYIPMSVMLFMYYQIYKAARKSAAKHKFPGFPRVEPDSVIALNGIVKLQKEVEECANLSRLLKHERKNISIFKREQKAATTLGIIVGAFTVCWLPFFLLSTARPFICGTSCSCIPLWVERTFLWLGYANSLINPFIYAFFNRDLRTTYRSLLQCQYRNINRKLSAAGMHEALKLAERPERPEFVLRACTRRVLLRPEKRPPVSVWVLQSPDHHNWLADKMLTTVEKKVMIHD

NCI-H929 = assay: H929 cell line Proliferation assay; format: functional, Homo sapiens; details: Compound concentration 10 uM; time 3 day
SU-DHL10 = assay: SuDHL10 cell line Proliferation assay; format: functional, Homo sapiens; details: Compound concentration 10 uM; time 3 day
HT-144 = assay: HT-144 cell line Proliferation assay; format: functional, Homo sapiens; details: Compound concentration 10 uM; time 5 day
[3] = molecular target: Ribosomal protein S6 kinase alpha-1 (Homo sapiens) (UniProt Q15418); details: Compound concentration 1000.0 nM
Sequence of Ribosomal protein S6 kinase alpha-1 (Homo sapiens) (Q15418 whole entry): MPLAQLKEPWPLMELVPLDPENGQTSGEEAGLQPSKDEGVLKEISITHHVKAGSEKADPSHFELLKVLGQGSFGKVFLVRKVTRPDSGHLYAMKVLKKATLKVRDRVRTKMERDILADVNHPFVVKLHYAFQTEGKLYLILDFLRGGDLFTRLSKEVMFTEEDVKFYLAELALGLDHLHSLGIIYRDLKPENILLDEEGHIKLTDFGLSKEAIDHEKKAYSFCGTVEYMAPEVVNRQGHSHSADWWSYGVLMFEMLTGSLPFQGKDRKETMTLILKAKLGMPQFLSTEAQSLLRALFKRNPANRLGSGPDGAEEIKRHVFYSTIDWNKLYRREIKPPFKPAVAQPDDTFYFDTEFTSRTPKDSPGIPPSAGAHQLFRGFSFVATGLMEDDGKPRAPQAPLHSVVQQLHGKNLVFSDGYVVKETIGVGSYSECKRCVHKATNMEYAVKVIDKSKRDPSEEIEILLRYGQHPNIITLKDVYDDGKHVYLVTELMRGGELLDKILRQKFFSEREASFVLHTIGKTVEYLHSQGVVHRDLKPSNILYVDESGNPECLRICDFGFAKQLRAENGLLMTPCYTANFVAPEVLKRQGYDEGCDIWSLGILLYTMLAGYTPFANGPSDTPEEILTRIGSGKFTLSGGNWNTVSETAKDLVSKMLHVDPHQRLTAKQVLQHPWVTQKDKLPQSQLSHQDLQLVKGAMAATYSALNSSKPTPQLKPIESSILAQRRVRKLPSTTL

THP-1 = assay: THP-1 cell line Proliferation assay; format: functional, Homo sapiens; details: Compound concentration 10 uM; time 3 day
VCaP = assay: VCaP cell line Proliferation assay; format: functional, Homo sapiens; details: Compound concentration 10 uM; time 5 day
[4] = molecular target: Calcium/calmodulin-dependent protein kinase type II subunit alpha (Homo sapiens) (UniProt Q9UQM7); details: Compound concentration 1000.0 nM
[5] = molecular target: Activin receptor type-1B (Homo sapiens) (UniProt P36896); details: Compound concentration 1000.0 nM
Sequence of Activin receptor type-1B (Homo sapiens) (P36896 whole entry): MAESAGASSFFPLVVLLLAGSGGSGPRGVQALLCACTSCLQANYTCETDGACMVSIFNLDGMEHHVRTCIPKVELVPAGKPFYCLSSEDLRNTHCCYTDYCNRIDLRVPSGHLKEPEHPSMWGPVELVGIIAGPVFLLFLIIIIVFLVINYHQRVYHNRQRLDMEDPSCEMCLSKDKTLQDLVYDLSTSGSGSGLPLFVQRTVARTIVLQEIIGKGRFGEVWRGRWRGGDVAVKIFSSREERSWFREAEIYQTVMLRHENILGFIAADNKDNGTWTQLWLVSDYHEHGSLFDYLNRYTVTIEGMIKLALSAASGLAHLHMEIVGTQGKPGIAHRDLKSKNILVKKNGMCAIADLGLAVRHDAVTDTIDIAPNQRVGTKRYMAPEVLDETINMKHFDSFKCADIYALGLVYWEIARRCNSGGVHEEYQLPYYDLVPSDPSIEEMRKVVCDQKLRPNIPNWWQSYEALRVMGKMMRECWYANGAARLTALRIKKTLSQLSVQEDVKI

[6] = molecular target: 5-hydroxytryptamine receptor 7 (Homo sapiens) (UniProt P34969); assay: 5-HT7 (h) CEREP ligand profiling; details: filed as agonist, Compound concentration 10.0 uM
OCI-Ly18 = assay: OCI Ly18 cell line Proliferation assay; format: functional, Homo sapiens; details: Compound concentration 10 uM; time 3 day
Kasumi 1 = assay: Kasumi-1 cell line Proliferation assay; format: functional, Homo sapiens; details: Compound concentration 10 uM; time 3 day
SC1 = assay: Sc1 cell line Proliferation assay; format: functional, Homo sapiens; details: Compound concentration 10 uM; time 3 day
U2932 = assay: U2932 cell line Proliferation assay; format: functional, Homo sapiens; details: Compound concentration 10 uM; time 3 day
G-361 = assay: G361 cell line Proliferation assay; format: functional, Homo sapiens; details: Compound concentration 10 uM; time 5 day
KARPAS-299 = assay: KARPAS-299 cell line Proliferation assay; format: functional, Homo sapiens; details: Compound concentration 10 uM; time 3 day
WSU-NHL = assay: WSU-NHL cell line Proliferation assay; format: functional, Homo sapiens; details: Compound concentration 10 uM; time 3 day
HCC38 = assay: HCC38 cell line Proliferation assay; format: functional, Homo sapiens; details: Compound concentration 10 uM; time 5 day
[7] = molecular target: Delta-type opioid receptor (Homo sapiens) (UniProt P41143); assay: delta (DOP) (h) CEREP ligand profiling; details: filed as agonist, Compound concentration 10.0 uM
Sequence of Delta-type opioid receptor (Homo sapiens) (P41143 whole entry): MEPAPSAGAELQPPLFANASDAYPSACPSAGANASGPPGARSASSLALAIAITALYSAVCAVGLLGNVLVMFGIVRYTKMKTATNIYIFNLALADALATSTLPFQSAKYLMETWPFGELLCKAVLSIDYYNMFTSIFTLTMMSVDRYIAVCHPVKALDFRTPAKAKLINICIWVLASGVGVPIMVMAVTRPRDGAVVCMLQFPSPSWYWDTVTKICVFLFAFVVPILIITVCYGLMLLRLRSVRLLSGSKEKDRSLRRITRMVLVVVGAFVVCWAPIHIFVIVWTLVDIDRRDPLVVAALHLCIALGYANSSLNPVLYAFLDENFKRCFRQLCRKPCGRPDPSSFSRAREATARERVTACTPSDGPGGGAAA

MOLT-4 = assay: MOLT-4 cell line Proliferation assay; format: functional, Homo sapiens; details: Compound concentration 10 uM; time 3 day
Calu-6 = assay: Calu 6 cell line Proliferation assay; format: functional, Homo sapiens; details: Compound concentration 10 uM; time 3 day
EMT6 = assay: EMT6 (mouse) cell line Proliferation assay; format: functional; details: Compound concentration 10 uM; time 5 day
HCC4006 = assay: HCC4006 cell line Proliferation assay; format: functional, Homo sapiens; details: Compound concentration 10 uM; time 3 day
[8] = molecular target: Delta-type opioid receptor (Homo sapiens) (UniProt P41143); details: Compound concentration 10.0 uM
HT = assay: HT cell line Proliferation assay; format: functional, Homo sapiens; details: Compound concentration 10 uM; time 3 day
Granta-519 = assay: Granta 519 cell line Proliferation assay; format: functional, Homo sapiens; details: Compound concentration 10 uM; time 3 day
[9] = molecular target: D(2) dopamine receptor (Homo sapiens) (UniProt P14416); assay: D2S (h) CEREP ligand profiling; details: filed as antagonist, Compound concentration 10.0 uM
4T1 = assay: 4T1 (mouse) cell line Proliferation assay; format: functional; details: Compound concentration 10 uM; time 5 day
LNCaP-Clone-FGC = assay: LnCaP -FGC cell line Proliferation assay; format: functional, Homo sapiens; details: Compound concentration 10 uM; time 5 day
[10] = molecular target: Serine/threonine-protein kinase/endoribonuclease IRE1 (Homo sapiens) (UniProt O75460); details: Compound concentration 1000.0 nM
Sequence of Serine/threonine-protein kinase/endoribonuclease IRE1 (Homo sapiens) (O75460 19-977 limits assumed): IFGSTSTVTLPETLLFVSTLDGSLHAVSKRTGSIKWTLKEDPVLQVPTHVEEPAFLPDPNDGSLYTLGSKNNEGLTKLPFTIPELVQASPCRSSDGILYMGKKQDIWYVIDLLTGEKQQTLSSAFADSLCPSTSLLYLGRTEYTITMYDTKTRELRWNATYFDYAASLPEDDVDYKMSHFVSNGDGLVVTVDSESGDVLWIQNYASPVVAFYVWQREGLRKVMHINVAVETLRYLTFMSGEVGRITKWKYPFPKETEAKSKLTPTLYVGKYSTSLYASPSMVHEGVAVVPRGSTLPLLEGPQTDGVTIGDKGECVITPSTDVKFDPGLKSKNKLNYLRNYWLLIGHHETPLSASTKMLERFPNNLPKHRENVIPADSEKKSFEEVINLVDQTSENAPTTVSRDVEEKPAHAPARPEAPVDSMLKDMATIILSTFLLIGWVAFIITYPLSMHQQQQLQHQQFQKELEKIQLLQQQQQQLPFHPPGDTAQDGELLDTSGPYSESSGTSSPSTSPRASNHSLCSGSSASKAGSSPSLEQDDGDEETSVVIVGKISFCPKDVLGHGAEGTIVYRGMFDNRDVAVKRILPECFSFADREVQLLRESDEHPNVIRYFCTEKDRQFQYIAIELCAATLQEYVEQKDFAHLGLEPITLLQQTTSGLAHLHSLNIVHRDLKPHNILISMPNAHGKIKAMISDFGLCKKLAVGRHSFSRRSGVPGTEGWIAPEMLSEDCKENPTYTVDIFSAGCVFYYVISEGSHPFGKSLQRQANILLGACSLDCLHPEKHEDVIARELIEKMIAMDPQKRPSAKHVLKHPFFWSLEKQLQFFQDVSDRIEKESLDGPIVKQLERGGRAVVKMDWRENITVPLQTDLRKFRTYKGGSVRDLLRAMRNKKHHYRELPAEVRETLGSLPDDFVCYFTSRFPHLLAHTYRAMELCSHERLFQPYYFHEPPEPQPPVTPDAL

OCI-Ly1 = assay: OCI Ly1 cell line Proliferation assay; format: functional, Homo sapiens; details: Compound concentration 10 uM; time 3 day
BT-20 = assay: BT-20 cell line Proliferation assay; format: functional, Homo sapiens; details: Compound concentration 10 uM; time 5 day
[11] = molecular target: Cyclin-dependent kinase 7 (Homo sapiens) (UniProt P50613); details: Compound concentration 1000.0 nM
Sequence of Cyclin-dependent kinase 7 (Homo sapiens) (P50613 whole entry): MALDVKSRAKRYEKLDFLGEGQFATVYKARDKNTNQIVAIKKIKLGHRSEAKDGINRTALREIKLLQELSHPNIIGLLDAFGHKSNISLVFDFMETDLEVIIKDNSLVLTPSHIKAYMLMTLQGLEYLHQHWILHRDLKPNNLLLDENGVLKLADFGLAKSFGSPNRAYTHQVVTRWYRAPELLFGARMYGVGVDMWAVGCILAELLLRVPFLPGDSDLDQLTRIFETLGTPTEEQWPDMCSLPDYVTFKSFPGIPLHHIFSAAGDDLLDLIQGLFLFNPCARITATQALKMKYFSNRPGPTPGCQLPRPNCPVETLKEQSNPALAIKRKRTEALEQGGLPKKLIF

SU-DHL-5 = assay: SuDHL5 cell line Proliferation assay; format: functional, Homo sapiens; details: Compound concentration 10 uM; time 3 day
[12] = molecular target: Serine/threonine-protein kinase MRCK gamma (Homo sapiens) (UniProt Q6DT37); details: Compound concentration 1000.0 nM
HCC1143 = assay: HCC1143 cell line Proliferation assay; format: functional, Homo sapiens; details: Compound concentration 10 uM; time 5 day
[13] = tested on: Tyrosine-protein kinase ABL1 (Homo sapiens), P00519 [H396P]; details: Compound concentration 1000.0 nM
U-2940 = assay: U2940 cell line Proliferation assay; format: functional, Homo sapiens; details: Compound concentration 10 uM; time 3 day
SU-DHL-8 = assay: SuDHL8 cell line Proliferation assay; format: functional, Homo sapiens; details: Compound concentration 10 uM; time 3 day
NCI-H128 = assay: H128 cell line Proliferation assay; format: functional, Homo sapiens; details: Compound concentration 10 uM; time 4 day
[14] = molecular target: Histone acetyltransferase type B catalytic subunit (Homo sapiens) (UniProt O14929); assay: HAT1 (HAT) CEREP ligand profiling; details: Compound concentration 10.0 uM
[15] = molecular target: Fibroblast growth factor receptor 2 (Homo sapiens) (UniProt P21802); details: Compound concentration 1000.0 nM
Sequence of Fibroblast growth factor receptor 2 (Homo sapiens) (P21802 22-821 limits assumed): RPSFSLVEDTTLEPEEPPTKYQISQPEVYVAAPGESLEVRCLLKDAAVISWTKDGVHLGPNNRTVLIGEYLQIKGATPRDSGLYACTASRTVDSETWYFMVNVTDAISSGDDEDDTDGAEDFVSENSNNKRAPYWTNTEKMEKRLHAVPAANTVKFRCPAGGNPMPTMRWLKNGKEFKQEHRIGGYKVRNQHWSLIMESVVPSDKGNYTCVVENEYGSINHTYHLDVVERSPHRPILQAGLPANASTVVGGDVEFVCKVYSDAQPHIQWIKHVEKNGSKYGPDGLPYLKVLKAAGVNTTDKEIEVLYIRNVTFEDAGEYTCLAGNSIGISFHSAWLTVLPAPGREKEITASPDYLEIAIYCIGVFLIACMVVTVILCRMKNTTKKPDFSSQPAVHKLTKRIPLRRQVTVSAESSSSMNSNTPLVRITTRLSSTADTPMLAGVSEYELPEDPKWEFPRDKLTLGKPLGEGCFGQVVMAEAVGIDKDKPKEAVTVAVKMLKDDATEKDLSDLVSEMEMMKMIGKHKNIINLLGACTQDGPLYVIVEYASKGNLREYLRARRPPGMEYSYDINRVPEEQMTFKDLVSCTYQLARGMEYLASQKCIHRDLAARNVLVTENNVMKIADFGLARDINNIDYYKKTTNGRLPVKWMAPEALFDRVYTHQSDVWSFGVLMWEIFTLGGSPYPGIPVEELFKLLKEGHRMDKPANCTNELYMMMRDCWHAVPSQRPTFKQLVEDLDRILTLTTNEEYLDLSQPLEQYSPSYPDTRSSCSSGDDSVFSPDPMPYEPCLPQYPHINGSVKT

[16] = molecular target: T1, Alpha-1A adrenergic receptor (Homo sapiens) (UniProt P35348); details: Compound concentration 10.0 uM
T1 sequence (whole entry): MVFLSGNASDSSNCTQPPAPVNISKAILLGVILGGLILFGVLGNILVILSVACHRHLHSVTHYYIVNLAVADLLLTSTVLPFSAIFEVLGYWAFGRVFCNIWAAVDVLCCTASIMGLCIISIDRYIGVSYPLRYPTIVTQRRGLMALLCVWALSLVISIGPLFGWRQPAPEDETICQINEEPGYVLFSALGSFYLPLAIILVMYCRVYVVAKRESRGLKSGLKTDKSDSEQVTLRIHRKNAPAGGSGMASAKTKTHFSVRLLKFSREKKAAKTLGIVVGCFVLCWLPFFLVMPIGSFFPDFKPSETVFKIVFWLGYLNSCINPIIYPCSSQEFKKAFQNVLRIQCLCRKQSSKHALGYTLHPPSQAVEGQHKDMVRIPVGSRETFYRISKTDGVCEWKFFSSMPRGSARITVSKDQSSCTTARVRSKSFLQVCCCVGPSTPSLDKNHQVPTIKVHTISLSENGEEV

[17] = molecular target: Beta-2 adrenergic receptor (Homo sapiens) (UniProt P07550); assay: beta 2 (h) CEREP ligand profiling; details: filed as agonist, Compound concentration 10.0 uM
[18] = molecular target: Receptor-type tyrosine-protein kinase FLT3 (Homo sapiens) (UniProt P36888); details: Compound concentration 1000.0 nM
[19] = molecular target: Homeodomain-interacting protein kinase 1 (Homo sapiens) (UniProt Q86Z02); details: Compound concentration 1000.0 nM
[20] = molecular target: Serine/threonine-protein kinase PAK 2 (Homo sapiens) (UniProt Q13177); details: Compound concentration 1000.0 nM

With `CNC(=O)Nc1ccc2c(c1)CC[C@@]21OC(=O)N(CC(=O)N(Cc2ccc(F)cc2)[C@@H](C)C(F)(F)F)C1=O` [A-485] the “Cell Proliferation EC50” value (NCI-H727) was 6.632 µM, the “Cell Proliferation EC50” value (NCI-H2081) was >10 µM and the “Cell Proliferation EC50” value (U-937) was >10 µM. The “Cell Proliferation EC50” value (NCI-H1930) was >10 µM, the “Cell Proliferation EC50” value (MDA-MB-468) was 0.3767 µM and the “Cell Proliferation EC50” value (MDA-MB-453) was 1.8664 µM. The “Cell Proliferation EC50” value (Farage) was >10 µM, the residual activity [1] was 74% and the inhibition [2] was 7.83%. For the same compound, the “Cell Proliferation EC50” value (NCI-H929) was 0.329 µM, the “Cell Proliferation EC50” value (SU-DHL10) was 0.9169 µM and the “Cell Proliferation EC50” value (HT-144) was 3.077 µM. For the same compound, the residual activity [3] was 88%, the “Cell Proliferation EC50” value (THP-1) was 3.51 µM and the “Cell Proliferation EC50” value (VCaP) was 0.04 µM. It also gave a residual activity [4] of 91%, a residual activity [5] of 86% and an inhibition [6] of 16%. The “Cell Proliferation EC50” value (OCI-Ly18) was 0.3213 µM, the “Cell Proliferation EC50” value (Kasumi 1) was 0.285 µM and the “Cell Proliferation EC50” value (SC1) was 1.689 µM. The “Cell Proliferation EC50” value (U2932) was 2.46 µM, the “Cell Proliferation EC50” value (G-361) was 3.768 µM and the “Cell Proliferation EC50” value (KARPAS-299) was >10 µM. For the same compound, the “Cell Proliferation EC50” value (WSU-NHL) was 1.063 µM, the “Cell Proliferation EC50” value (HCC38) was >10 µM and the inhibition [7] was 11%. For the same compound, the “Cell Proliferation EC50” value (MOLT-4) was >10 µM, the “Cell Proliferation EC50” value (Calu-6) was 8.573 µM and the “Cell Proliferation EC50” value (EMT6) was 0.4989 µM. The “Cell Proliferation EC50” value (HCC4006) was 4.64 µM, the inhibition [8] was -2.53% and the “Cell Proliferation EC50” value (HT) was >10 µM. For the same compound, the “Cell Proliferation EC50” value (Granta-519) was 3.28 µM, the inhibition [9] was 13% and the “Cell Proliferation EC50” value (4T1) was >10 µM. For the same compound, the “Cell Proliferation EC50” value (LNCaP-Clone-FGC) was 0.26 µM, the residual activity [10] was 56% and the “Cell Proliferation EC50” value (OCI-Ly1) was 0.9405 µM. For the same compound, the “Cell Proliferation EC50” value (BT-20) was 0.3365 µM, the residual activity [11] was 78% and the “Cell Proliferation EC50” value (SU-DHL-5) was 0.7606 µM. For the same compound, the residual activity [12] was 88%, the “Cell Proliferation EC50” value (HCC1143) was >10 µM and the residual activity [13] was 49%. The “Cell Proliferation EC50” value (U-2940) was 1.332 µM, the “Cell Proliferation EC50” value (SU-DHL-8) was 0.54 µM and the “Cell Proliferation EC50” value (NCI-H128) was >10 µM. The inhibition [14] was -1.9% and the residual activity [15] was 88%.
In the case of `CNC(=O)Nc1ccc2c(c1)[C@@]1(CC2)OC(=O)N(CC(=O)N(Cc2ccc(F)cc2)[C@@H](C)C(F)(F)F)C1=O` [A-486], the residual activity [1] is reported as 88%, the residual activity [3] is reported as 100% and the inhibition [16] is reported as 0.04%. It also gave a residual activity [4] of 100%, a residual activity [5] of 100% and an inhibition [6] of 6%. It also gave an inhibition [7] of 1%, an inhibition [17] of 1% and a residual activity [18] of 92%. For the same compound, the inhibition [9] was -3%, the residual activity [10] was 100% and the residual activity [19] was 78%. For the same compound, the residual activity [11] was 76%, the residual activity [20] was 94% and the residual activity [12] was 88%. For the same compound, the residual activity [13] was 53% and the residual activity [15] was 87%.
